Where two headings read alike, the source gives them in different places.
Experiments:
[1] = system: erythrocytic stages of P. falciparum NF54; assay: Plasmodium falciparum in vitro assay, [3H] hypoxanthine incorporation; assay type: cell-based; conditions: Plasmodium falciparum, Erythrocyte, 72 h, P. falciparum NF54 in human red blood cells, 48 h + 24 h incubation
Outline: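 Cultures in human red blood cells (2.5% hematocrit, 0.3% parasitemia) were exposed to serially diluted compounds for 48 h at 37° C. under 4% CO2, 3% O2, 93% N2. [3H] hypoxanthine (0.5 μCi) was added for a further 24 h, incorporation counted by scintillation, and IC50 derived from sigmoidal inhibition curves.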

[2] = system: P. berghei strain GFP-ANKA; assay: In vivo antimalarial efficacy study in infected NMRI mice; conditions: Plasmodium berghei; female NMRI mice infected with P. berghei GFP-ANKA; single oral dose of 100 mg/kg 24 h after infection; parasitemia 48 h after drug treatment (day 3); read-out: Activity (inhibition of parasitemia) expressed as a percent relative to the control group
Outline: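 Female NMRI mice, in groups of three, were infected i.v. on day 0 with 2×10^7 P. berghei GFP-ANKA parasitized erythrocytes. At 24 h they received one oral 100 mg/kg dose in Tween 80/ethanol (7%/3%). Parasitemia was counted by FACS on day 3, and activity was given as percent reduction versus controls.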

[3] = screening medium with Albumax (5 g/L), read-out: IC50 on NF54 (with Albumax)
[4] = screening medium with human serum (50% final concentration), read-out: IC50 on NF54 (with 50% Serum)

Row | SMILES | IC50 [1, 3] | IC50 [1, 4] | inhibition in vivo at 100 mg/kg [2]
1 | CC(=O)N1CCN(c2ccc(CN(C(=O)C=Cc3ccc(C(C)C)cc3)[C@@H](Cc3ccccc3)C(=O)N3CCN(Cc4ccc(C#N)cc4)CC3)cc2)CC1 [Example 32, (S)-N-[4-(4-Acetyl-piperazin-1-yl)-benzyl]-N-{1-benzyl-2-[4-(4-cyano-benzyl)-piperazin-1-yl]-2-oxo-ethyl}-3-(4-isopropyl-phenyl)-acrylamide] | 0.5 nM | 4.4 nM | 98.5%
2 | CC(=O)N1CCN(c2ccc(CN(C(=O)C=Cc3ccc(S(C)(=O)=O)cc3)[C@@H](Cc3ccccc3)C(=O)N3CCN(Cc4ccc(N(C)CCO)cc4)CC3)cc2)CC1 [Example 55, (S)-N-[4-(4-Acetyl-piperazin-1-yl)-benzyl]-N-[1-benzyl-2-(4-{4-[(2-hydroxy-ethyl)-methyl-amino]-benzyl}-piperazin-1-yl)-2-oxo-ethyl]-3-(4-methanesulfonyl-phenyl)-acrylamide] | 7.5 nM | 14.8 nM | < 40%
3 | CCS(=O)(=O)c1ccc(CN2CCN(C(=O)[C@H](Cc3ccccc3)N(Cc3ccc(N4CCN(C(C)=O)CC4)cc3)C(=O)C=Cc3ccc(C(F)(F)F)cc3)CC2)cc1 [Example 49, (S)-N-(4-(4-acetylpiperazin-1-yl)benzyl)-N-(1-(4-(4-(ethylsulfonyl)benzyl)piperazin-1-yl)-1-oxo-3-phenylpropan-2-yl)-3-(4-(trifluoromethyl)phenyl)acrylamide] | 0.8 nM | 3.1 nM | 98.6%
